pEC50: −log10 of the molar value.
These compounds were tested on SKBR3 cells (assay: SKBR3 Cell Viability Assay). Settings: 72 hours, CellTiter Glo, read-out: MCL-1 CV SKBR3 EC50.
Format: cell-based
Description: SKBR3 Cell Viability Assay Materials
SKBR3 Cells (ATCC HTB-30) were obtained from ATCC (Manassas, Va.) and cultured in McCoy 5A's medium (ATCC 30-2007)+10% fetal bovine serum (SH30071.03, HyClone, Pittsburgh, Pa.) plus 1× Penicillin-Streptomycin L-glutamine (Corning 30-009-C1, Corning, N.Y.)).
The cell viability assay was conducted in a 384-well tissue culture plate (Grenier 781086, Monroe, N.C.) in a total volume of 70 μL. Test compounds were prepared in 1,000×, serially diluted, and pre-spotted into 384-well tissue culture plate by Echo 555 Liquid Handler (Labcyte Inc., San Jose, Calif.). Seventy μ1 of 6,000 SKBR3 cells were dispensed into each well of the plate and incubated at 37° C. with 5% CO2 for 72 hours. At the end of incubation, 2× CellTiter Glo (CTG) reagents (1 part buffer with 2 parts substrate) (Promega, Madison, Wis.) were prepared, and the plate and the reagent were equilibrated to room temperature for 30 minutes. CTG reagent was added to each plate by Biomek FX at 20 μL/well with 5 times pipetting and mixing to induce cell lysis. Luminescence was read by Envision multimode reader (PerkinElmer). […] Percent inhibition was calculated as followed: % Inhibition=100%*(Well−Neg)/(Pos−Neg) Neg, negative control, DMSO Pos, positive control, 10 μM Puromycin

Row | SMILES | pEC50
1 | CO[C@H]1/C=C/C[C@H](C)C[S@@](=O)(NC(=O)N2CC(OC(=O)N(C)C)C2)=NC(=O)c2ccc3c(c2)N(C[C@@H]2CC[C@H]21)C[C@@]1(CCCc2cc(Cl)ccc21)CO3 [Example 292] | 7.35
2 | CO[C@H]1/C=C/C[C@H](C)C[S@@](=O)(NC(=O)c2cn(C)nc2OCCN2CCOCC2)=NC(=O)c2ccc3c(c2)N(C[C@@H]2CC[C@H]21)C[C@@]1(CCCc2cc(Cl)ccc21)CO3 [Example 319] | 7.70
3 | CO[C@H]1/C=C/CCC[S@@](=O)(NC(=O)CC(F)(F)F)=NC(=O)c2ccc3c(c2)N(C[C@@H]2CC[C@H]21)C[C@@]1(CCCc2cc(Cl)ccc21)CO3 [Example 23] | 5.84
4 | CO[C@H]1/C=C/CCC[S@@](=O)(NC(=O)C2CCC2)=NC(=O)c2ccc3c(c2)N(C[C@@H]2CC[C@H]21)C[C@@]1(CCCc2cc(Cl)ccc21)CO3 [Example 31] | 5.59
5 | CO[C@H]1/C=C/CCC[S@@](=O)(NC(=O)Cc2ncccn2)=NC(=O)c2ccc3c(c2)N(C[C@@H]2CC[C@H]21)C[C@@]1(CCCc2cc(Cl)ccc21)CO3 [Example 30] | 5.74
6 | COC1CN(C(=O)N[S@@]2(=O)=NC(=O)c3ccc4c(c3)N(C[C@@H]3CC[C@H]3[C@@H](O)/C=C/C[C@H](C)C2)C[C@@]2(CCCc3cc(Cl)ccc32)CO4)C1 [Example 266] | 7.27
7 | CO[C@H]1/C=C/C[C@H](C)C[S@@](=O)(NC(=O)c2cc3n(c2)CCc2c-3cnn2C)=NC(=O)c2ccc3c(c2)N(C[C@@H]2CC[C@H]21)C[C@@]1(CCCc2cc(Cl)ccc21)CO3 [Example 208] | 7.35
8 | CO[C@H]1/C=C/C[C@H](C)C[S@@](=O)(NC(=O)N2C[C@@H](OC)[C@@H]2C)=NC(=O)c2ccc3c(c2)N(C[C@@H]2CC[C@H]21)C[C@@]1(CCCc2cc(Cl)ccc21)CO3 [Example 253] | 7.41
9 | CO[C@H]1/C=C\C[C@H](C)[C@@H](C)[S@@](=O)(NC(=O)COC2CCOCC2)=NC(=O)c2ccc3c(c2)N(C[C@@H]2CC[C@H]21)C[C@@]1(CCCc2cc(Cl)ccc21)CO3 [Example 406] | 6.48
10 | CO[C@H]1/C=C/CCC[S@@](=O)(NC(=O)CC2CC2)=NC(=O)c2ccc3c(c2)N(C[C@@H]2CC[C@H]21)C[C@@]1(CCCc2cc(Cl)ccc21)CO3 [Example 21] | 5.89
11 | CO[C@H]1/C=C/CCC[S@@](=O)(NC(=O)C2CC2)=NC(=O)c2ccc3c(c2)N(C[C@@H]2CC[C@H]21)C[C@@]1(CCCc2cc(Cl)ccc21)CO3 [Example 27] | 5.68
12 | CO[C@H]1/C=C/CCC[S@@](=O)(NC(=O)CCS(C)(=O)=O)=NC(=O)c2ccc3c(c2)N(C[C@@H]2CC[C@H]21)C[C@@]1(CCCc2cc(Cl)ccc21)CO3 [Example 28] | 5.08
13 | COc1ccc(C(=O)N[S@@]2(=O)=NC(=O)c3ccc4c(c3)N(C[C@@H]3CC[C@H]3[C@@H](OC)/C=C/C[C@H](C)C2)C[C@@]2(CCCc3cc(Cl)ccc32)CO4)cc1 [Example 273] | 7.09
14 | COC1CCn2cc(C(=O)N[S@@]3(=O)=NC(=O)c4ccc5c(c4)N(C[C@@H]4CC[C@H]4[C@@H](OC)/C=C/C[C@H](C)C3)C[C@@]3(CCCc4cc(Cl)ccc43)CO5)cc2C1 (stereo partly drawn) [Example 175] | 7.47
15 | CO[C@H]1/C=C/CCC[S@@](=O)(NC(=O)C2COC2)=NC(=O)c2ccc3c(c2)N(C[C@@H]2CC[C@H]21)C[C@@]1(CCCc2cc(Cl)ccc21)CO3 [Example 24] | 6.05

Same assay, conditions: Homo sapiens, SK-BR-3, 72 h, CellTiter Glo, read-out: MCL-1 CV SKBR3 EC50

Row | pEC50 | SMILES
16 | 7.62 | COc1nn(C)cc1C(=O)N[S@@]1(=O)=NC(=O)c2ccc3c(c2)N(C[C@@H]2CC[C@H]2[C@@H](OC)/C=C/C[C@H](C)C1)C[C@@]1(CCCc2cc(Cl)ccc21)CO3 [Example 154]
17 | 6.99 | CO[C@H]1/C=C/C[C@H](C)C[S@@](=O)(NC(=O)c2cc3n(c2F)CCOC3)=NC(=O)c2ccc3c(c2)N(C[C@@H]2CC[C@H]21)C[C@@]1(CCCc2cc(Cl)ccc21)CO3 [Example 174]
18 | 5.86 | COc1nn(C)cc1C(=O)NS1(=O)=NC(=O)c2ccc3c(c2)N(C[C@@H]2CC[C@H]2[C@@H](OC)/C=C/C[C@H](C)C1)C[C@@]1(CCCc2cc(Cl)ccc21)CO3 (single isomer, unassigned) [Example 388]
